According to patent US20070010485A1 (priority 2005, published 2007):
Counter-ions that a name gives are not always drawn.

Experiments:
[1] = tested on: P-gp expressing CD33(+) leukemia cells; details: cited from earlier work
[2] = use of CAPTISOL

| SMILES | reversal of resistance to Mylotarg [1] | increase in water solubility with CAPTISOL [2] [fold] |
| --- | --- | --- |
| O=C(C(c1ccccc1)c1ccccc1)N1CCN(CC(O)COc2cccc3ncccc23)CC1.O=C(O)/C=C/C(=O)O (centres unmarked) [MS-209] | reverse the resistance to Mylotarg |  |
| OC(COc1cccc2ncccc12)CN1CCN([C@@H]2c3ccccc3[C@@H]3[C@H](c4ccccc42)C3(F)F)CC1 (some centres unmarked) [zosuquidar trihydrochloride] |  | > 5 |
